How the values were obtained:
[1] = intravenous LD50; settings: mouse, in vivo
Procedure: The corresponding intravenous LD50 is 30 mg./kg. Other LD50 values for compounds of the invention when dosed intravenously are as follows: […]

[2] = oral LD50 in mice; settings: mouse, in vivo

`CN1CCC2(CC1)c1ccccc1Sc1c(O)cccc12` [4-hydroxy-1'-methylthioxanthene-9-spiro-4'-piperidine] gave an LD50 ([1]; mice, read-out: intravenous LD50) of 30 mg/kg and an LD50 [2] of over 500 mg/kg.

Molecule `C=CCN1CCC2(CC1)c1ccccc1Sc1c(O)cccc12` [Allyl 4-OH H H H S, 4-hydroxy-1'-allylthioxanthene-9-spiro-4'-piperidine] has an LD50 ([1]; table 1, read-out: LD50) of 43 mg/kg.

`CC(=O)Oc1cccc2c1Sc1cc(Cl)ccc1C21CCN(C)CC1` [Me 4-OAc H 6-Cl H S] gave an LD50 ([1]; table 1, read-out: LD50) of over 50 mg/kg.

For `CCCN1CCC2(CC1)c1ccccc1Sc1c(O)cccc12` [n-Pr 4-OH H H H S], the LD50 ([1]; table 1, read-out: LD50) was 35 mg/kg.
